Where a name gives a salt, the structure may show the parent alone.

In the test the target is T1, P2X7 (Homo sapiens, UniProt Q99572).
T1 sequence (Q99572 1-595): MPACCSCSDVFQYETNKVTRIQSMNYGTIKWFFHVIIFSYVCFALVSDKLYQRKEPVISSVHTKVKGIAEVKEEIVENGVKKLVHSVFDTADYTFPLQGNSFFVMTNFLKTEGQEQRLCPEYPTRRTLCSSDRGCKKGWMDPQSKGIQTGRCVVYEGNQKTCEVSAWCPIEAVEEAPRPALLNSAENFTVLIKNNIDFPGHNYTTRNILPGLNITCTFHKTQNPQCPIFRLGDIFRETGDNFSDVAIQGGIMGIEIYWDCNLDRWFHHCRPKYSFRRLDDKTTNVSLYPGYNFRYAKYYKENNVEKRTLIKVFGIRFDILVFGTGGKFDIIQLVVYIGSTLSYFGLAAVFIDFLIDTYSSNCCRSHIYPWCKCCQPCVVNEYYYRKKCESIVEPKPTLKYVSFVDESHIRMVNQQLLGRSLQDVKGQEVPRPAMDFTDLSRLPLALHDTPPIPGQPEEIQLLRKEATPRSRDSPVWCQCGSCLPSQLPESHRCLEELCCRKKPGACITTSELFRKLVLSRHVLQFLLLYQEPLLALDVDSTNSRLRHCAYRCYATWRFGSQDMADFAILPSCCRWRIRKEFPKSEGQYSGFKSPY
The experiment in a line: YO-PRO-1 dye uptake assay in U373 cells stably expressing P2X7. The format is cell-based. Further details: The complete open reading frame of human P2X7 was amplified from Incyte clone 148057; expressed in transfected cells. To be noted: dye uptake through P2X7, U373 cells, 300 μM BzATP, 5 μM YO-PRO-1, test compounds 30 nM to 3 μM; read-out: IC50. The protocol:
Following a 24-hr exposure to DNA, cells were trypsinized and re-seeded at low density in the presence of […] G418. After incubation for 2 weeks, isolated clones were selected with cloning cylinders and replated in […] G418. Cell clones were then expanded. Clones were screened for P2X7 by applying ATP and recording the resultant current using patch clamp electrophysiology.
U373 cells stably expressing P2X7 were used to screen drugs via a dye uptake assay. Cells were plated overnight on collagen coated 96-well plates at a density of 35,000 cells per well. The following day, culture media was replaced with Mg^++ and Ca^++-free Hank's balanced salt solution and various concentrations of test compounds ranging from 30 nM to 3 μM. Cells were then allowed to incubate with test compounds at 37° C. for 20 minutes. Following this incubation period YO-PRO-1 dye (Molecular Probes, Eugene, Oreg., final concentration 5 μM) and 2′-& 3′-O-(4-Benzolybenzoyl)-Adenosine 5′-triphosphate (Sigma Chemical, St Louis, Mo., final concentration 300 μM) were added to the cells sequentially. Cells were then incubated at 37° C. for 1.5 hours. […] Fluorescence in the presence of test substances was compared to that in the absence of test substances (control).

One may read the IC50 as the concentration that inhibits the measured activity by half. For the molecule `Fc1cccc(CC2=N[C@@H](c3ccccc3)[C@@H](c3ccccc3)N2)c1F` [2-(2,3-Difluorobenzyl)-cis-4,5-diphenyl-4,5-dihydro-1H-imidazole trifluoroacetate], the IC50 worked out at 930 nM. For the molecule `Fc1cccc([C@H]2NC(Cc3ccc(F)cc3F)=N[C@H]2c2cccc(F)c2)c1` [2-(2,4-Difluorobenzyl)-cis-4,5-bis-(3-fluorophenyl)-4,5-dihydro-1H-imidazole trifluoroacetate], the half-inhibitory concentration (IC50) was found to be 409 nM. Then `Fc1ccc(CC2=N[C@@H](c3ccccc3)[C@@H](c3ccccc3)N2)c(F)c1` [2-(2,4-Difluorobenzyl)-cis-4,5-diphenyl-4,5-dihydro-1H-imidazole trifluoroacetate], with 42 nM.

Take `Fc1cccc([C@H]2NC(Cc3ccccc3F)=N[C@H]2c2cccc(F)c2)c1` [2-(2-Fluorobenzyl)-cis-4,5-bis-(3-fluorophenyl)-4,5-dihydro-1H-imidazole trifluoroacetate]: the concentration for half-maximal inhibition (IC50) was 449 nM. The same measure for `Fc1cccc([C@H]2NC(Cc3ccc(F)c(F)c3)=N[C@H]2c2cccc(F)c2)c1` [2-(3,4-Difluorobenzyl)-cis-4,5-bis-(3-fluorophenyl)-4,5-dihydro-1H-imidazole trifluoroacetate]: 79 nM; for `Fc1ccc(CC2=N[C@@H](c3ccccc3)[C@@H](c3ccccc3)N2)cc1F` [2-(3,4-Difluorobenzyl)-cis-4,5-diphenyl-4,5-dihydro-1H-imidazole trifluoroacetate]: 24 nM. The same measure for `Fc1cccc([C@H]2NC(Cc3cccc(Cl)c3)=N[C@H]2c2cccc(F)c2)c1` [2-(3-Chlorobenzyl)-cis-4,5-bis-(3-fluorophenyl)-4,5-dihydro-1H-imidazole trifluoroacetate]: 330 nM. Then `Fc1ccc(CC2=N[C@@H](c3cccc(F)c3)[C@@H](c3cccc(F)c3)N2)cc1` [2-(4-Fluorobenzyl)-cis-4,5-bis-(3-fluorophenyl)-4,5-dihydro-1H-imidazole trifluoroacetate], with 217 nM; and `FC(F)(F)c1ccc(CC2=N[C@@H](c3ccccc3)[C@@H](c3ccccc3)N2)cc1` [2-(4-Trifluoromethylbenzyl)-cis-4,5-diphenyl-4,5-dihydro-1H-imidazole trifluoroacetate], with 403 nM. In the case of `OC(CC1=N[C@@H](c2ccccc2)[C@@H](c2ccccc2)N1)c1ccccc1` (stereo partly drawn) [2-(cis-4,5-diphenyl-4,5-dihydro-1H-imidazol-2-yl)-1-phenylethan-1-ol], the IC50 is 195 nM. The same measure for `c1ccc(C(CC2=N[C@@H](c3ccccc3)[C@@H](c3ccccc3)N2)c2ccccc2)cc1` [2-[2,2-diphenylethyl]-cis-4,5-diphenyl-4,5-dihydro-1H-imidazole trifluoroacetate]: 320 nM. The same measure for `Fc1cccc([C@H]2NC(CCc3ccccc3Cl)=N[C@H]2c2cccc(F)c2)c1` [2-[2-(2-Chlorophenyl)ethyl]-cis-4,5-bis-(3-fluorophenyl)-4,5-dihydro-1H-imidazole]: 140 nM. In the case of `Clc1ccccc1CCC1=N[C@@H](c2ccccc2)[C@@H](c2ccccc2)N1` [2-[2-(2-Chlorophenyl)ethyl]-cis-4,5-diphenyl-4,5-dihydro-1H-imidazole trifluoroacetate], the 50% inhibitory concentration (IC50) amounted to 48 nM. Turning to `Fc1cccc([C@H]2NC(CCc3ccccc3F)=N[C@H]2c2cccc(F)c2)c1` [2-[2-(2-Fluorophenyl)ethyl]-cis-4,5-bis-(3-fluorophenyl)-4,5-dihydro-1H-imidazole trifluoroacetate], the half-maximal inhibitory concentration (IC50) is 304 nM. Then `Fc1ccccc1CCC1=N[C@@H](c2ccccc2)[C@@H](c2ccccc2)N1` [2-[2-(2-Fluorophenyl)ethyl]-cis-4,5-diphenyl-4,5-dihydro-1H-imidazole trifluoroacetate], with 164 nM; and `COc1ccccc1CCC1=N[C@@H](c2ccccc2)[C@@H](c2ccccc2)N1` [2-[2-(2-Methoxyphenyl)ethyl]-cis-4,5-diphenyl-4,5-dihydro-1H-imidazole trifluoroacetate], with 832 nM.

Values taken from patent publication US7741493B2, “Heterocyclic compounds as P2X7 ion channel blockers” (Aventis Pharmaceuticals Inc., priority 2003, dated 2010).
